Laboratory results taken from patent US5350677A, “Method of assaying phosphatase with 3,4-dinitrophenylphosphate” (Iatron Laboratories, Inc., priority 1989, dated 1994).

What was measured:
[1] = without solubilizing auxiliary agent; cited from earlier work
[2] = Stability (decomposition) of substrate in aqueous solution; format: physicochemical

SMILES	solubility in water [1]	decomposition ratio ([2]; enzyme reaction conditions (pH 5, 37° C.) for one hour, 60 min)	stability of aqueous solution ([2]; under ice-cooling)
CC(=O)N[C@H]1[C@H](Oc2ccc([N+](=O)[O-])cc2Cl)O[C@H](CO)[C@@H](O)[C@@H]1O [2-chloro-4-nitrophenyl-N-acetyl-β-D-glucosaminide]	difficult to dissolve in water	–	–
CC(=O)N[C@H]1[C@H](Oc2ccc([N+](=O)[O-])c([N+](=O)[O-])c2)O[C@H](CO)[C@@H](O)[C@@H]1O [3,4-DNG, 3,4-dinitrophenyl-N-acetyl-β-D-glucosaminide]	–	1.5%	stable
